Among the data in PubChem BioAssay (NCI) are TGI values, retold here.

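How tested: cells in 96-well plates exposed to compound for 48 hours at five concentrations. TGI marks complete inhibition of growth.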 Some results are limits rather than exact numbers.

Some test systems named below: ACHN renal; MCF7 breast; OVCAR-4 ovarian; SF-268 CNS; RPMI-8226 leukemia; HCT-116 colon; HCC-2998 colon; M14 melanoma; NCI-H23 lung; A498 renal; NCI-H226 lung; IGROV1 ovarian; A549 NSCLC; EKVX NSCLC; SNB-75 CNS; MDA-MB-231 breast; HOP-92 NSCLC; HL-60(TB) leukemia; OVCAR-3 ovarian.
Common to all, as to assay: NCI anticancer screen, dose series, 48 h

Consider `O/C(=C\c1nc2ccccc2nc1/C=C(\O)c1ccc(Cl)cc1)c1ccccc1`, for which the TGI in the assay on ACHN renal, with MCF7 breast, with OVCAR-4 ovarian, in the assay with SF-268 CNS, with RPMI-8226 leukemia and in the assay on HCT-116 colon was greater than 100 µM throughout. For the same compound, the TGI in the assay with HCC-2998 colon, with M14 melanoma, in the assay on NCI-H23 lung, in the assay on A498 renal, in the assay with NCI-H226 lung and with IGROV1 ovarian was greater than 100 µM throughout. Also, the TGI is greater than 100 µM in the assay with A549 NSCLC, greater than 100 µM in the assay on EKVX NSCLC, 72.8 µM in the assay on SNB-75 CNS and greater than 100 µM with MDA-MB-231 breast.

As to `CN(C(=O)C12C3C4C1C1C4(C(=O)C45C6C7C4C4C5C6C74C)C3C12C)C(C)(C)C` (stereo not given), the TGI in the assay on ACHN renal, with HOP-92 NSCLC, in the assay on SF-268 CNS, in the assay with HCT-116 colon, in the assay on HCC-2998 colon and in the assay with M14 melanoma was greater than 100 µM each time. Also, the TGI with NCI-H23 lung, in the assay on A498 renal, with NCI-H226 lung, in the assay with IGROV1 ovarian, in the assay with A549 NSCLC and in the assay on EKVX NSCLC was greater than 100 µM in each case. Further, the TGI in the assay on HL-60(TB) leukemia was 43.2 µM; with SNB-75 CNS, greater than 100 µM.

For `N=C(N)N1CCC(N2CCOCC2)CC1`, the TGI with ACHN renal, in the assay with MCF7 breast, with HOP-92 NSCLC, with OVCAR-4 ovarian, with SF-268 CNS and in the assay on RPMI-8226 leukemia was greater than 100 µM throughout. The TGI in the assay on HCT-116 colon, in the assay on HCC-2998 colon, in the assay on M14 melanoma, with NCI-H23 lung, in the assay with A498 renal and in the assay with NCI-H226 lung was greater than 100 µM throughout. Moreover, the TGI in the assay on IGROV1 ovarian, in the assay with A549 NSCLC, in the assay with EKVX NSCLC, with HL-60(TB) leukemia, with SNB-75 CNS and in the assay on MDA-MB-231 breast was greater than 100 µM throughout.

As to `O=C1c2ccccc2NC(=O)C2C1C(c1ccccc1)CC2(O)c1ccccc1` (stereo not given), the TGI in the assay with ACHN renal is greater than 100 µM; with MCF7 breast, greater than 100 µM; in the assay on HOP-92 NSCLC, 67 µM; in the assay with OVCAR-4 ovarian, greater than 100 µM; in the assay on SF-268 CNS it was greater than 100 µM; in the assay with HCT-116 colon, 37.8 µM. Moreover, the TGI in the assay on OVCAR-3 ovarian, with HCC-2998 colon, in the assay on M14 melanoma, in the assay with NCI-H23 lung, with A498 renal and in the assay on IGROV1 ovarian was greater than 100 µM each time. For the same compound, the TGI in the assay on A549 NSCLC is greater than 100 µM; with EKVX NSCLC it was greater than 100 µM; in the assay with HL-60(TB) leukemia, greater than 100 µM; with SNB-75 CNS, 0.0677 µM; in the assay on MDA-MB-231 breast, greater than 100 µM.

With `O=C1CCC(=O)N1Cc1ccccc1N=[N+]([O-])c1ccccc1CN1C(=O)CCC1=O`, the TGI in the assay on ACHN renal, in the assay on OVCAR-4 ovarian, in the assay on SF-268 CNS, in the assay on RPMI-8226 leukemia, in the assay with HCT-116 colon and with OVCAR-3 ovarian was greater than 100 µM each time. Moreover, the TGI in the assay with HCC-2998 colon, in the assay with M14 melanoma, in the assay on NCI-H23 lung, with IGROV1 ovarian, with A549 NSCLC and in the assay on EKVX NSCLC was greater than 100 µM each time. Also, the TGI was greater than 100 µM in the assay with HL-60(TB) leukemia and 65.6 µM in the assay with SNB-75 CNS.

As to `CCN=C(NNc1ccc([N+](=O)[O-])cc1)P(=O)(OC(C)C)OC(C)C`, the TGI with ACHN renal, in the assay with HOP-92 NSCLC, in the assay with OVCAR-4 ovarian, with SF-268 CNS, in the assay with RPMI-8226 leukemia and in the assay on HCT-116 colon was greater than 100 µM in each case. Moreover, the TGI in the assay on OVCAR-3 ovarian, in the assay on HCC-2998 colon, in the assay with M14 melanoma, with NCI-H23 lung, with A498 renal and with NCI-H226 lung was greater than 100 µM in each case. In addition, the TGI in the assay on A549 NSCLC, with EKVX NSCLC, in the assay with HL-60(TB) leukemia and in the assay with SNB-75 CNS was greater than 100 µM in each case.

For the compound `Cc1ccc2ccccc2c1NC1=NCCO1`, the TGI with ACHN renal is greater than 100 µM; in the assay on MCF7 breast, greater than 100 µM; in the assay with HOP-92 NSCLC it was 46.8 µM; in the assay on OVCAR-4 ovarian, greater than 100 µM; in the assay on SF-268 CNS it was greater than 100 µM; with RPMI-8226 leukemia, greater than 100 µM. For the same compound, the TGI in the assay with HCT-116 colon is greater than 100 µM; with HCC-2998 colon, greater than 100 µM; in the assay with M14 melanoma, greater than 100 µM; in the assay on NCI-H23 lung, greater than 100 µM; in the assay on NCI-H226 lung, 74.5 µM; in the assay on IGROV1 ovarian it was greater than 100 µM. For the same compound, the TGI in the assay with A549 NSCLC, with EKVX NSCLC, in the assay with HL-60(TB) leukemia, in the assay with SNB-75 CNS and with MDA-MB-231 breast was greater than 100 µM each time.

For `CC1(C)O[C@@H]2[C@@H](COC(=O)c3ccccc3)C[C@@H](C#N)[C@@H]2O1`, the TGI in the assay with ACHN renal, in the assay with MCF7 breast, in the assay with HOP-92 NSCLC, in the assay with OVCAR-4 ovarian, in the assay on SF-268 CNS and with RPMI-8226 leukemia was greater than 100 µM throughout. Besides, the TGI with HCT-116 colon, in the assay with OVCAR-3 ovarian, in the assay with HCC-2998 colon, in the assay on M14 melanoma, with NCI-H23 lung and in the assay with A498 renal was greater than 100 µM each time. Also, the TGI with NCI-H226 lung, in the assay on IGROV1 ovarian, in the assay on A549 NSCLC, in the assay with HL-60(TB) leukemia, with SNB-75 CNS and in the assay on MDA-MB-231 breast was greater than 100 µM in each case.
